According to paper PMC11215747, “Improved Rigidin-Inspired Antiproliferative Agents with Modifications on the 7-Deazahypoxanthine C7/C8 Ring Systems” (Journal of Medicinal Chemistry, 2024):
“Also recorded” adds a separate entry of the source. Read-outs that look alike come from different tables or passages of the source.

Tests used:
[1] = system: HeLa cells; test: Annexin V apoptosis assay and cell-fate tracking in HeLa cells; type: cell-based, Human; conditions: 20 nM; for apoptosis at the 30 hour time point (Annexin V fluorescence): 6 biological replicates, one-way ANOVA amongst compounds; for total numbers of cells that died following mitotic arrest: single-cell tracking, >130 cells per treatment
Experimental: To directly assess apoptosis in living cells, HeLa cells were plated (six biological replicates per condition) in 96-well Imagelock Plates (Sartorius BA-04855) at a density of 1,562.5 cells/cm^2. The following day, cells were placed in media containing IncuCyte Annexin V Dye (Sartorius 4642) supplemented with either 0.1% Dimethyl sulfoxide or test compounds (20 nM), and plates were placed in a Sartorius Incucyte S3 live cell imaging system. Plates were scanned hourly, with phase contrast and green fluorescence images were acquired at three positions per well. Raw fluorescence data was processed using Incucyte software, and Prism Graphpad was used for data visualization and statistical analysis. To track individual cell fates, combined phase contrast/fluorescence time lapse sequences were exported from multiple wells per condition, and cell fates individual cells were scored and tabulated using Graphpad Prism software.

[2] = system: colon cancer; set-up: method as in PMID 26641132; conditions: mouse model for colon cancer, 3 mg/kg; cited from earlier work
[3] = system: WI38 embryonic lung fibroblast cell line; set-up: method as in PMID 26641132; conditions: fold less active; cited from earlier work
[4] = system: human colon cancer lines; set-up: method as in PMID 26641132; conditions: several human colon cancer lines; cited from earlier work
[5] = system: PNT1A cells; test: MTT cytotoxicity assay against normal epithelial cell line PNT1A; type: cell-based; conditions: Homo sapiens, PNT1A
Experimental: (§1) The 3-(4,5-dimethylthiazol-2-yl)-2,5-diphenyltetrazolium bromide (MTT) assay was employed to evaluate the antiproliferative activities of the synthesized 7-deazahypoxathine analogues. The HeLa, PNT1A, or PANC-1 cell lines were assessed by trypsinizing and seeding 4 × 10^3 cells per well into 96-well plates. Synthesized compounds were dissolved in DMSO at a concentration of either 50 mM or 100 mM before cell treatment. Cells were grown for 24 h and then treated with compounds at concentrations ranging from 0.04 to 100 μM and incubated for 48 h in 200 μL media. Twenty microliters of MTT reagent in serum-free medium (5 mg/mL) was added to each well and incubated further for 2 h. Media was removed and the resulting formazan crystals were resolubilized in 200 μL of DMSO. A Thermomax Molecular Device plate reader was utilized to measure A490. Experiments were performed in quadruplicate and repeated at least twice for each compound. The control comprised of cells treated with 0.1% DMSO. One micromolar phenyl arsine oxide (PAO) was utilized as a positive killing control.

[6] = system: MCF-7 cells; set-up: method as in PMID 26641132; conditions: cited from earlier work
[7] = system: HeLa cells; test: MTT antiproliferative assay against HeLa cells; type: cell-based, Human; conditions: Homo sapiens, MTT, 48 h, average and SD from two independent determinations, each in quadruplicate (footnote c), read-out: GI50 (μM) ± SD
Experimental: as §1, with “control. […]” for “control.”

[8] = system: PANC-1 cells; test: MTT cytotoxicity assay against PANC-1 cells; type: cell-based; conditions: Homo sapiens; PANC-1 cell line
Experimental: as §1

[9] = target: T1, tubulin (Sus scrofa, UniProt P02554); test: Fluorescence-based tubulin polymerization assay; type: biochemical; conditions: 25 μM, relative to 1% DMSO control, averaged from two experiments
T1 construct: purchased Cytoskeleton, Inc
T1 sequence (P02554 whole entry): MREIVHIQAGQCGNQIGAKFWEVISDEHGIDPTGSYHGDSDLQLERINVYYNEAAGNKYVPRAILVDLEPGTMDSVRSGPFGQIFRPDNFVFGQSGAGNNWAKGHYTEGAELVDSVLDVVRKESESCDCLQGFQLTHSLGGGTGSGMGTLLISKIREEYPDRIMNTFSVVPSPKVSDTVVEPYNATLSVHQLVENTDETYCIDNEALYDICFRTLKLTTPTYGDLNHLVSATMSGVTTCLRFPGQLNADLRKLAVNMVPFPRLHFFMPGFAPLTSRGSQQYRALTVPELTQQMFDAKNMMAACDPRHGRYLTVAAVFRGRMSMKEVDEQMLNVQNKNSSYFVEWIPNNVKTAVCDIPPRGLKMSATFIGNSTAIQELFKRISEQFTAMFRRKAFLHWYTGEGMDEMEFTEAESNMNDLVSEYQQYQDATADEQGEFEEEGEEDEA
T1 sequence (P02550 whole entry partner): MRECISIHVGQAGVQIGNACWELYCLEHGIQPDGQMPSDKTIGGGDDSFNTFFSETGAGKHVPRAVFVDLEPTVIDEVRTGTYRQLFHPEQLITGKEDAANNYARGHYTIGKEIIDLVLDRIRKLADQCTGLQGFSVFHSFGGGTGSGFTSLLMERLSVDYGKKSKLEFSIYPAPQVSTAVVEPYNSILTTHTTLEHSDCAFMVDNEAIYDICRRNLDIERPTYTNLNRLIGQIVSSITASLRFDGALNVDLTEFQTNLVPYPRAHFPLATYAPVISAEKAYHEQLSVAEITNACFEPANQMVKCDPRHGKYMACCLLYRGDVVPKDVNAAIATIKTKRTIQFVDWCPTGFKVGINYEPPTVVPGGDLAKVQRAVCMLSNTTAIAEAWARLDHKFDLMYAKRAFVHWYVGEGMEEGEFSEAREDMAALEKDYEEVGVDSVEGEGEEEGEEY
Experimental: The fluorescence-based tubulin polymerization assay from Cytoskeleton, Inc. was used. […] The tubulin reaction mixture was prepared per manufacturer’s instructions, kept on ice, and used within ∼15 min of preparation. A Biotek Synergy H4 hybrid multimode plate reader was preheated to 37 °C. Prior to starting the assay, a half-area black 96-well plate was preheated within the plate reader. A volume of 5 μL of each of the tested samples was pipetted into separate wells of the plate and incubated in the warm plate reader for 1 min.

[10] = system: HeLa cells; test: Live cell imaging of EGFP-tubulin expressing HeLa cells; type: cell-based, Human; conditions: 7.5 nM (50% of GI50), 4 h
Experimental: HeLa cells were plated on 35 mm glass-bottomed Mattek dishes (Mattek, code P35G-1.5–14-C). Next day, transient transfection of EGFP-tubulin was performed using a Lipofectamine 2000 (Thermofisher code 11668019) according to the manufacturer’s instructions. After 6 h of transfection, cells were cultured in fresh media overnight before being treated with either 0.1% DMSO or 7.5 nM analogue 33 for 4 h. To visualize chromatin, cells were cultured in the presence the cell permeant NucSpot Live nuclear stain (Biotium code 40082) for 60 min prior to imaging. Cells were imaged live using an Andor Dragonfly 505 spinning disk confocal system mounted on an Olympus IX83 inverted microscope. Cell viability was maintained by an Oko Touch prewarmed (37 °C) temperature-controlled microscope stage supplied with 5% CO2. Z-stacks (10 planes at […] intervals) were acquired every 2 min using a 60× Aprochromat silicon objective (NA 1.30) and an Andor iXon 888 EMCCD camera driven by Andor Fusion software. Fusion IMS files were converted to tiff images and avi movies using FIJI, and figures were prepared in Adobe Photoshop CS5.

[11] = system: HeLa cells; test: Microtubule organization by immunolabeling in HeLa cells; type: cell-based, Human; conditions: 4 h
Experimental: To examine microtubule morphology in rigidin-treated cells, HeLa cells were incubated for 4 h in the presence or absence of test compound before being fixed with 3.7% formaldehyde in PBS and permeabilized with 0.1% Triton X-100 in PBS. After blocking the cells with 3% bovine serum albumin in PBS, they were probed with antibodies for the centromere marker CENP-B (Abcam, code ab25734) and tubulin (Sigma, code sc-53029), which were detected with Alexa Fluor-labeled secondary antibodies (Thermofisher). Hoechst 33342 (1 mg/mL, Thermofisher H3570) was used to stain DNA. Samples were mounted on glass slides and imaged using Andor Dragonfly 505 spinning disk confocal system mounted on an Olympus IX83 inverted microscope. Figures were created with Adobe Photoshop CS5. All drugs were resuspended in DMSO, and 0.1% DMSO served as a carrier control.

Compound	apoptosis at the 30 hour time point (Annexin V fluorescence) [1]	total numbers of cells that died following mitotic arrest [1] [%]	body weight [2]	side effects [2]	tumor size [2]	activity against WI38 compared to four colorectal cancer cell lines [3]	GI50 values [4]	GI50 ([5]; read-out: PNT1A GI50(mM)) [µM]	GI50 [6] [µM]	GI50 [7] [µM]	GI50 [8] [µM]	effect on in vitro tubulin polymerization [9]	mitotic progression in live cell imaging [10]	effect on interphase microtubules ([11]; at GI50 concentrations)	effect on spindle morphology ([11]; at GI50 concentrations)	syntelic chromosome attachments ([11]; lower concentrations (GI25))	GI50 ([5]; molecular formula strings CSV, read-out: PNT1A GI50) [µM]
C#CCCCc1nc(=O)c2c(-c3ccccc3)c(C(=O)c3ccccc3)[nH]c2[nH]1 [Compound 1, 6-Benzoyl-2-(pent-4-yn-1-yl)-5-phenyl-1,7-dihydro-4H-pyrrolo[2,3-d]pyrimidin-4-one]	no significant differences	75	maintaining body weight	no observable side effects	significant tumor size reduction	approximately 1000 fold	approaching single-digit nanomolar values	0.036 ± 0.009	0.035								
C#CCCCc1nc(=O)c2c(-c3ccccc3)c(C(=O)c3ccc(OCCOCC)cc3)[nH]c2[nH]1 [Compound 33, 6-[4-(2-Ethoxyethoxy)benzoyl]-2-(pent-4-yn-1-yl)-5-phenyl-1,7-dihydro-4H-pyrrolo[2,3-d]pyrimidin-4-one]	no significant differences	86								0.015 ± 0.004	0.015	potent inhibition of microtubule assembly; also recorded: completely suppress tubulin polymerization	various responses ranging from correcting the syntelic attachments and progressing through mitosis to prolonged prometaphase arrest, followed by mitotic exit and/or cell death	no striking effects on interphase microtubules	remarkable effects on the spindle morphology	still prevalent	0.024 ± 0.005
